Assay results published in patent publication EP4782431A1 (Suzhou Merna Therapeutics Co. Ltd, priority 2023, dated 2025).

What was measured:
[1] = tested on: rat models with a hand-foot skin reaction; assay: rat models with a hand-foot skin reaction; type: in vivo, SD rats
Procedure: After adaptive feeding for one week, SD rats (with a body weight of approximately 200 g) were randomly divided into groups with balanced body weight, with 12 rats in each group. Modeling drugs (including sorafenib, erlotinib, afatinib, and osimertinib) were respectively dissolved in a solution containing 5% of DMSO, 45% of PEG400, and 50% of H2O, and the modeling drugs were diluted to required concentrations and then administered once daily by gavage at doses shown in Table 3. After administration by gavage for 1 hour, 0.05 g of ointments containing different mass proportions of test compounds were evenly applied to left paws of the rats, a blank matrix ointment was applied to right paws of the rats to serve as a self-control, and no ointment was applied to the rats in a blank control group. After drug application, four limbs were continuously immobilized for 2 hours, then wiped with clean water to remove the residual drugs, removed from immobilization, and restored to free movement. The modeling drugs, the blank matrix ointment, and the ointments containing the test compounds were all administered once daily. After continuous administration for 30 days, the rats were euthanized, and paw plantar skin tissues were collected, fixed in 10% neutral formalin, […]. The ointments for the test compounds were prepared by mixing the compounds, white beeswax, white petrolatum, and light liquid paraffin in specific ratios (weight ratios of 3 ointments were respectively 1:18:58:23, 3:18:57:22, and 10:20:40:30). The blank matrix ointment was prepared by mixing white beeswax, white petrolatum, and light liquid paraffin in a specific ratio (weight ratio of 18:60:22).
Tissue staining: After dewaxing and rehydration, the paw plantar skin tissue sections of the above rats were stained in a hematoxylin solution for several minutes, cleaned, and placed in 1% acid alcohol for soaking until the sections faded to light blue-red. After cleaning with running water for 5 minutes, the sections were stained with eosin for 2-3 minutes, cleaned to remove excess dyes, dehydrated, then permeabilized by adding xylene for several minutes, and sealed and fixed with a neutral resin. The stratum corneum was observed under an optical microscope, and the thickness of the epidermal stratum corneum was measured using Dmetrix software.
Immunohistochemical staining: After dewaxing and hydration, the paw plantar skin tissue sections of the above rats were incubated with 3% H2O2 at room temperature for 30 minutes and blocked with 10% goat serum for 30 minutes after antigen retrieval. A KRT1 antibody (Abcam, ab93652) and a Loricrin antibody (Abcam, ab183646) were added dropwise, the sections were incubated overnight at 4°C, and an HRP secondary antibody (ZSGB-BIO, PV-6001) and a DAB kit (ZSG-BIO, ZLI9017) were added for color development. The sections were re-stained with hematoxylin, cleaned, and sealed and fixed with a neutral resin, and the expression amounts of KRT1 and Loricrin were observed under an optical microscope.
An incidence rate calculation method involves a proportion of animals in each group meeting the above criteria for determining successful modeling, that is, incidence rate = (number of successfully modeled rats/total number of rats in the group)*100%. […]

[2] = hygroscopicity by dynamic vapor sorption (DVS); type: physicochemical; conditions: for 1st adsorption Percentage of weight change / 1st desorption Percentage of weight change / 2nd adsorption Percentage of weight change / 2nd desorption Percentage of weight change: 40-0-95-0-40%RH, 240 min per step
Procedure: ProUmid SPSx-1µ Advance was used for analysis of a sample. The sample to be tested was approximately in an amount of 5-50 mg. A temperature in a test chamber was controlled at 25±1°C, a relative humidity cycle was […], a step size was 10%, an equilibrium time was 240 minutes per step, and mass data was recorded every 20 seconds.
A DVS cycle was 40-0-95-0-40%RH. XRPD detection was performed on samples after the DVS testing to determine whether crystal form transformation occurred.

[3] = stability of crystal forms (XRPD, HPLC, color); type: physicochemical; conditions: for Crystal form: XRPD
Procedure: A 2θ scanning angle of the sample was 3°-40°, a scanning step size was 0.02°, and a scanning time per step was 0.12 s/step. An optical tube voltage and a current were 40 kV and 40 mA, respectively. During sample preparation, an appropriate amount of the sample was placed on a sample tray and flattened with a tool such as a glass slide to ensure a smooth and even surface.
An Agilent 1260 infinityII binary pump was used for solubility and stability testing.
The stability of samples under these conditions was detected by XRPD and HPLC, and whether the samples had color changes was observed.
(§1) A certain amount of the crystal form C of the compound of formula (I) was weighed and placed in an open container at 25°C/92.5%RH for 1 week. A certain amount of the crystal form C of the compound of formula (I) was weighed and placed in a closed container at 60°C for 1 week. The stability of samples under these conditions was detected by XRPD and HPLC, and whether the samples had color changes was observed. Table 16 Stability test results of the crystal form C of the compound of formula (I)
as §1, with “form D” for “form C”, “Table 17” for “Table 16”
as §1, with “form E” for “form C”, “Table 18” for “Table 16”

[4] = modeling drug alone by gavage once daily 30 days (Sorafenib 100, Erlotinib 70, Afatinib 50, Osimertinib 60 mg/kg), no test compound

In the case of `CN(C)C/C=C/C(=O)Nc1cc2c(Nc3ccc(F)c(Cl)c3)ncnc2cc1O[C@H]1CCOC1` [Afatinib, afatinib, reference compound], the “successful modeling rates for the hand-foot skin reaction” value ([1]; SD rats, once daily by gavage: sorafenib 100, erlotinib 70, afatinib 50, osimertinib 60 mg/kg) is reported as 66.7%, the “KRT1 and Loricrin in tissues” value ([1]; immunohistochemical staining, successfully modeled rats, modeling drug alone) is reported as “significantly increased” and the “Incidence rate Left paw” value [1, 4] is reported as 8/12 (66.7%). For the same molecule, the “Incidence rate Right paw” value [1, 4] was 8/12 (66.7%) and the “stratum corneum thickness of the paw plantar skin” value ([1]; successfully modeled rats, modeling drug alone, vs normal rats) was “significantly higher than that of normal rats”.
With `NC(=O)[C@H]1CCCc2c1[nH]c1ccc(Cl)cc21` [Crystal form A, (S)-6-chloro-2,3,4,9-tetrahydro-1H-carbazole-carboxamide] the “Hygroscopicity Conclusion” value ([2]; DVS at 25°C, Table 15) was “Slight hygroscopicity”, the “1st adsorption Percentage of weight change” value ([2]; Relative humidity 0% at 25°C) was 0.3% and the “1st desorption Percentage of weight change” value ([2]; Relative humidity 0% at 25°C) was 0.3%. The “2nd adsorption Percentage of weight change” value ([2]; Relative humidity 0% at 25°C) was 0.2%, the “2nd desorption Percentage of weight change” value ([2]; Relative humidity 0% at 25°C) was 0.2% and the “1st adsorption Percentage of weight change” value ([2]; Relative humidity 10% at 25°C) was 0.1%. For the same molecule, the “1st desorption Percentage of weight change” value ([2]; Relative humidity 10% at 25°C) was 0.3%, the “2nd adsorption Percentage of weight change” value ([2]; Relative humidity 10% at 25°C) was 0.3% and the “2nd desorption Percentage of weight change” value ([2]; Relative humidity 10% at 25°C) was 0.3%. The “1st adsorption Percentage of weight change” value ([2]; Relative humidity 20% at 25°C) was 0.3%, the “1st desorption Percentage of weight change” value ([2]; Relative humidity 20% at 25°C) was 0.1% and the “2nd adsorption Percentage of weight change” value ([2]; Relative humidity 20% at 25°C) was 0.3%. For the same molecule, the “2nd desorption Percentage of weight change” value ([2]; Relative humidity 20% at 25°C) was 0.2%, the “1st adsorption Percentage of weight change” value ([2]; Relative humidity 30% at 25°C) was 0.3% and the “1st desorption Percentage of weight change” value ([2]; Relative humidity 30% at 25°C) was 0.1%. For the same molecule, the “2nd adsorption Percentage of weight change” value ([2]; Relative humidity 30% at 25°C) was 0.1%, the “2nd desorption Percentage of weight change” value ([2]; Relative humidity 30% at 25°C) was 0.3% and the “1st adsorption Percentage of weight change” value ([2]; Relative humidity 40% at 25°C) was 0.1%. For the same molecule, the “1st desorption Percentage of weight change” value ([2]; Relative humidity 40% at 25°C) was 0.3%, the “2nd adsorption Percentage of weight change” value ([2]; Relative humidity 40% at 25°C) was 0.3% and the “2nd desorption Percentage of weight change” value ([2]; Relative humidity 40% at 25°C) was 0.4%. The “1st adsorption Percentage of weight change” value ([2]; Relative humidity 50% at 25°C) was 0.0%, the “2nd desorption Percentage of weight change” value ([2]; Relative humidity 50% at 25°C) was 0.1% and the “1st adsorption Percentage of weight change” value ([2]; Relative humidity 60% at 25°C) was 0.4%. For the same molecule, the “2nd desorption Percentage of weight change” value ([2]; Relative humidity 60% at 25°C) was 0.4%, the “1st adsorption Percentage of weight change” value ([2]; Relative humidity 70% at 25°C) was 0.4% and the “2nd desorption Percentage of weight change” value ([2]; Relative humidity 70% at 25°C) was 0.4%. For the same molecule, the “1st adsorption Percentage of weight change” value ([2]; Relative humidity 80% at 25°C) was 0.5%, the “2nd desorption Percentage of weight change” value ([2]; Relative humidity 80% at 25°C) was 0.2% and the “1st adsorption Percentage of weight change” value ([2]; Relative humidity 90% at 25°C) was 0.5%. For the same molecule, the “2nd desorption Percentage of weight change” value ([2]; Relative humidity 90% at 25°C) was 0.6%, the “1st adsorption Percentage of weight change” value ([2]; Relative humidity 95% at 25°C) was 0.7% and the “2nd desorption Percentage of weight change” value ([2]; Relative humidity 95% at 25°C) was 0.7%. For the same molecule, the “XRPD after DVS testing” value ([2]; after DVS cycle 40-0-95-0-40%RH at 25°C) was “Crystal form A”, the water absorption ([2]; from 40% to 95%RH, 25°C) was 0.6% and the Color ([3]; 25°C/92.5%RH, open, 1 week) was “No change”. The “Degradation (%)” value ([3]; 25°C/92.5%RH, open, 1 week) was “None”, the “Purity (%)” value ([3]; 25°C/92.5%RH, open, 1 week) was 99.8% and the Color ([3]; 60°C, closed, 1 week) was “No change”. For the same molecule, the “Degradation (%)” value ([3]; 60°C, closed, 1 week) was “None”, the “Purity (%)” value ([3]; 60°C, closed, 1 week) was 99.8% and the “Purity (%)” value ([3]; Initial) was 99.8%.
For `NC(=O)[C@H]1CCCc2c1[nH]c1ccc(Cl)cc21` [Crystal form C, (S)-6-chloro-2,3,4,9-tetrahydro-1H-carbazole-carboxamide], the Color ([3]; 25°C/92.5%RH, open, 1 week) was “No change”, the “Degradation (%)” value ([3]; 25°C/92.5%RH, open, 1 week) was 0.6% and the “Purity (%)” value ([3]; 25°C/92.5%RH, open, 1 week) was 99.1%. For the same molecule, the Color ([3]; 60°C, closed, 1 week) was “Changed”, the “Degradation (%)” value ([3]; 60°C, closed, 1 week) was 0.1% and the “Purity (%)” value ([3]; 60°C, closed, 1 week) was 99.6%. The “Purity (%)” value ([3]; Initial) was 99.7%.
In the case of `NC(=O)[C@H]1CCCc2c1[nH]c1ccc(Cl)cc21` [Crystal form D, (S)-6-chloro-2,3,4,9-tetrahydro-1H-carbazole-carboxamide], the Color ([3]; 25°C/92.5%RH, open, 1 week) is reported as “No change”, the “Degradation (%)” value ([3]; 25°C/92.5%RH, open, 1 week) is reported as 0.6% and the “Purity (%)” value ([3]; 25°C/92.5%RH, open, 1 week) is reported as 99.2%. The “Degradation (%)” value ([3]; 25°C/92.5%RH, open, 1 week, listed as crystal form D) was 0.6%, the Color ([3]; 60°C, closed, 1 week) was “Changed” and the “Degradation (%)” value ([3]; 60°C, closed, 1 week) was 1.1%. The “Purity (%)” value ([3]; 60°C, closed, 1 week) was 98.7%, the Crystal form ([3]; 60°C, closed, 1 week) was “D+F” and the “Degradation (%)” value ([3]; 60°C, closed, 1 week, listed as crystal form D) was 1.1%. The “Purity (%)” value ([3]; Initial) was 99.8%.
In the case of `NC(=O)[C@H]1CCCc2c1[nH]c1ccc(Cl)cc21` [Crystal form E, (S)-6-chloro-2,3,4,9-tetrahydro-1H-carbazole-carboxamide], the Color ([3]; 25°C/92.5%RH, open, 1 week) is reported as “No change”, the “Degradation (%)” value ([3]; 25°C/92.5%RH, open, 1 week) is reported as 0.2% and the “Purity (%)” value ([3]; 25°C/92.5%RH, open, 1 week) is reported as 99.2%. For the same molecule, the “Degradation (%)” value ([3]; 25°C/92.5%RH, open, 1 week, listed as crystal form E) was 0.2%, the Color ([3]; 60°C, closed, 1 week) was “Changed” and the “Degradation (%)” value ([3]; 60°C, closed, 1 week) was 3.0%. The “Purity (%)” value ([3]; 60°C, closed, 1 week) was 96.4%, the Crystal form ([3]; 60°C, closed, 1 week) was “E+F” and the “Degradation (%)” value ([3]; 60°C, closed, 1 week, listed as crystal form E) was 3.0%. For the same molecule, the “Purity (%)” value ([3]; Initial) was 99.4%.
With `C#Cc1cccc(Nc2ncnc3cc(OCCOC)c(OCCOC)cc23)c1` [Erlotinib, erlotinib, reference compound] the “KRT1 and Loricrin in tissues” value ([1]; rat, in vivo) was “significantly increased” and the “stratum corneum thickness of the paw plantar skin” value ([1]; rat, in vivo) was “significantly higher than that of normal rats”.
